Data from patent US9399028B2, “Treatment of drug resistant cancer” (ROCKEFELLER UNIVERSITY (THE), priority 2012, dated 2016).

Test system: B16F10 parental and DTIC-resistant cells
Experiment: In vitro cell growth in response to dacarbazine
Assay type: cell-based, mouse
Conditions: high-dose DTIC treatment
Source text: FIG. 31A-I. Activation of LXRβ Suppresses the In Vivo Growth of Melanoma Lines Resistant to Dacarbazine and Vemurafenib. (FIG. 31A) In vitro cell growth by 2.5×10^4 B16F10 parental cells and in vitro-derived B16F10 DTIC-resistant cells in response to varying doses of dacarbazine (DTIC) added to the cell media for 4 days. n=3. (FIG. 31B-FIG. 31D) Tumor growth by 5×10^4 DTIC-sensitive B16F10 parental cells (FIG. 31B) or 5×10^4 DTIC-resistant B16F10 cells (FIG. 31C) subcutaneously injected into C57BL/6-WT mice. Following tumor growth to 5-10 mm3 in volume, mice were treated with dacarbazine (50 mg/kg, i.p., daily) or a control vehicle and randomly assigned to regular chow or a chow supplemented with GW3965 (100 mg/kg). Final day tumor volume measurements are shown in (FIG. 31D). n=8-16 (FIG. 31B), 7-8 (FIG. 31C). (FIG. 31E-FIG. 31F) Tumor growth by DTIC-sensitive MeWo parental cells and in vivo-derived DTIC-resistant MeWo human melanoma cells in response to DTIC or GW3965 treatments. 5×10^5 cells were subcutaneously injected into NOD Scid gamma mice. After formation of tumors measuring 5-10 mm3 in volume, mice were blindedly assigned to a control treatment, a DTIC treatment (50 mg/kg, i.p., administered daily in 5-day cycles with 2-day off-treatment intervals), or a GW3965-supplemented diet treatment (100 mg/kg). Final day tumor measurements are show in (FIG. 31F). n=6-8. […]

In the case of CN(C)/N=N/c1[nH]cnc1C(N)=O [dacarbazine], the “increase in viability of DTIC-resistant cells compared to parental B16F10” value is reported as 7 fold.
